Source: patent US20190016747A1, “PURIFIED REBAUDIOSIDE A” (SGF Holdings, LLC, priority 2004, published 2019)
Where two headings read alike, the source gives them in different places.

Experiment: Solubility in water by incremental addition of water until complete solubilization
Type: physicochemical
Conditions: for % Solubility (solids (g)/ final volume (ml)): in water at room temperature, Example 4 samples
Description: In Example 4, RA89.95 Stevia starting material was processed through two reflux stages of the industrial embodiment of the invention, and a sample of the final product of the industrial process used as starting material in a stirred wash stage of the laboratory embodiment of the invention. Specifically, 100 kilograms of RA90 Stevia starting material were mixed with 400 liters of 90Et/10W solvent (this experiment was conducted while the starting material assay was still being perfected) and refluxed for 1 hour at 80° C., then cooled (chilled water in tank jacket) and allowed to stand for a minimum of 2 hours with mixture temperature maintained between 4° C. and 20° C. The mixture was filtered through a centrifugal decanter, and the retentate added to 400 liters of 90Et/10W solvent and refluxed for 1 hour at 80° C. The mixture from the second reflux was filtered through a centrifugal decanter. The retentate of the filtering of the second reflux mixture was mixed with water until the volume of the mixture was approximately twice the mass of the retentate (e.g., 350 kg retentate in a total mixture volume of 700 liters). The mixture in water was heated to 80° C. for approximately one hour to purge any residual ethanol from the mixture, then the mixture was spray-dried. There was no reflux in absolute ethanol prior to spray drying. The spray-dried product was weighed and a 0.1 gram sample was analyzed for rebaudioside A content using the HPLC Method described above. Five grams of the spray-dried material was mixed with 20 mls of absolute ethanol in a 100 ml round-bottomed flask and refluxed for 1 hour at 80° C. (“refluxed sample”) and then allowed to cool to room temperature. A second 5 gram sample of the spray-dried material was mixed with 20 mls of absolute ethanol and stirred for 15 minutes at room temperature (“stirred sample”). Both samples were filtered over a Whatman GF/A glass fiber filter (1.6 μm pore size) and the retained solids of both samples were dried in a blower oven at 80° C. until the solids maintained a constant weight. 1 gram each of the refluxed sample and of the stirred sample were placed in 15 ml glass centrifuge tubes. Water was added to each tube in 0.1 ml increments and the mixture thoroughly shaken to ensure maximum solubilization. Incremental aliquots of water were added until complete solubilization was achieved as evidenced by the lack of any observable suspended solids in the solution. The final volume at which complete solubilization occurred in each sample was noted.

Row | SMILES | % Solubility (solids (g)/ final volume (ml)) [%] | solubility in water | further results
1 | C=C1C[C@@]23CC[C@H]4[C@@](C)(CCC[C@@]4(C)C(=O)O[C@@H]4O[C@H](CO)[C@@H](O)[C@H](O)[C@H]4O)[C@@H]2CC[C@]1(O[C@@H]1O[C@H](CO)[C@@H](O)[C@H](O[C@@H]2O[C@H](CO)[C@@H](O)[C@H](O)[C@H]2O)[C@H]1O[C@@H]1O[C@H](CO)[C@@H](O)[C@H](O)[C@H]1O)C3 [15 minute stir in 100% ethanol, rebaudioside A] | 33 |  | % Solubility (solids (g)/ final volume (ml)) (listed as 15 minute stirred wash in absolute ethanol): 33%
2 | C=C1C[C@@]23CC[C@H]4[C@@](C)(CCC[C@@]4(C)C(=O)O[C@@H]4O[C@H](CO)[C@@H](O)[C@H](O)[C@H]4O)[C@@H]2CC[C@]1(O[C@@H]1O[C@H](CO)[C@@H](O)[C@H](O[C@@H]2O[C@H](CO)[C@@H](O)[C@H](O)[C@H]2O)[C@H]1O[C@@H]1O[C@H](CO)[C@@H](O)[C@H](O)[C@H]1O)C3 [purified rebaudioside A, rebaudioside A] |  | about 33% | 
3 | C=C1C[C@@]23CC[C@H]4[C@@](C)(CCC[C@@]4(C)C(=O)O[C@@H]4O[C@H](CO)[C@@H](O)[C@H](O)[C@H]4O)[C@@H]2CC[C@]1(O[C@@H]1O[C@H](CO)[C@@H](O)[C@H](O[C@@H]2O[C@H](CO)[C@@H](O)[C@H](O)[C@H]2O)[C@H]1O[C@@H]1O[C@H](CO)[C@@H](O)[C@H](O)[C@H]1O)C3 [No 100% ethanol treatment, rebaudioside A] | 2 |  | % Solubility (solids (g)/ final volume (ml)) (listed as 99.6% Reb A purity product): 2%
4 | C=C1C[C@@]23CC[C@H]4[C@@](C)(CCC[C@@]4(C)C(=O)O[C@@H]4O[C@H](CO)[C@@H](O)[C@H](O)[C@H]4O)[C@@H]2CC[C@]1(O[C@@H]1O[C@H](CO)[C@@H](O)[C@H](O[C@@H]2O[C@H](CO)[C@@H](O)[C@H](O)[C@H]2O)[C@H]1O[C@@H]1O[C@H](CO)[C@@H](O)[C@H](O)[C@H]1O)C3 [final product, rebaudioside A] |  | ~33% | 
5 | C=C1C[C@@]23CC[C@H]4[C@@](C)(CCC[C@@]4(C)C(=O)O[C@@H]4O[C@H](CO)[C@@H](O)[C@H](O)[C@H]4O)[C@@H]2CC[C@]1(O[C@@H]1O[C@H](CO)[C@@H](O)[C@H](O[C@@H]2O[C@H](CO)[C@@H](O)[C@H](O)[C@H]2O)[C@H]1O[C@@H]1O[C@H](CO)[C@@H](O)[C@H](O)[C@H]1O)C3 [Example 6, rebaudioside A] |  |  | solubility in water (at 25° C.): 59.0%
6 | C=C1C[C@@]23CC[C@H]4[C@@](C)(CCC[C@@]4(C)C(=O)O[C@@H]4O[C@H](CO)[C@@H](O)[C@H](O)[C@H]4O)[C@@H]2CC[C@]1(O[C@@H]1O[C@H](CO)[C@@H](O)[C@H](O[C@@H]2O[C@H](CO)[C@@H](O)[C@H](O)[C@H]2O)[C@H]1O[C@@H]1O[C@H](CO)[C@@H](O)[C@H](O)[C@H]1O)C3 [1 hour reflux in 100% ethanol, rebaudioside A] | 40 |  | % Solubility (solids (g)/ final volume (ml)) (listed as 1 hour reflux in absolute ethanol): 40%
